Test results as given in patent US10849863B2, “Compounds for treating cancer, for administering, and for pharmaceutical compositions” (UNIVERSITY OF LOUISVILLE RESEARCH FOUNDATION, INC., priority 2011, dated 2020).

How the values were obtained:
SK-MEL-28 cells [1] = test: Visual assessment of cytotoxicity, SK-MEL-28 cells; assay type: cell-based, human; conditions: for rounded up cells in mitosis (visual assessment): SK-MEL-28 cells (paclitaxel resistant), 24-well plate (FIG. 5B)
Excerpt: (§1) The cytotoxicity of the compounds were initially assessed visually and by photomicroscopy. Visual inspection of dose response experiments over a protracted time course provides valuable information on the responses of cells to the treatments. Phase contrast microscopy allows one to assess whether cells are undergoing mitotic arrest and/or apoptosis by their altered morphology. Mitotic cells rounded up with smooth membranes and often condensed chromosomes aligned at a metaphase plate were clearly visible. […] Cells were plated in 24-well plates and allowed to attach and stabilize overnight. Cells were then treated with compounds in dose response and photomicrographs were taken at various time points over 2 days. Photographs were assembled in composite figures showing dose response at a given time point.

HeLa cells [2] = test: Clonogenic viability assay, HeLa cells; assay type: cell-based, human; conditions: for colony formation (clonogenic cytotoxicity): Hela cells (paclitaxel sensitive), colonies counted after 10 days (FIG. 6A)
Experimental: (§2) Clonogenic assays are used to determine the impact of a test compositions on the ability of cells to replicate. Cells are plated at cloning densities (100 and 500 cells per well in a 6-well plate; 3 wells of each cell number), and allowed to attach and stabilize overnight. Cells are then treated in dose-response experiments with test composition(s) (one concentration of test composition per plate) and incubated for 7-10 days to allow colonies of >30 cells to form. Colonies are stained with crystal violet and counted. Colony forming ability is then calculated as a percent of control by setting the mean number of colonies per well of cells treated with vehicle (0.1% DMSO) equal to 100 percent.

HeLa cells [3] = test: Visual assessment of cytotoxicity, HeLa cells; assay type: cell-based, human; conditions: for rounded up cells in mitosis (visual assessment): HeLa cells (paclitaxel sensitive), 24-well plate (FIG. 5A)
Excerpt: as §1

HeLa cells [4] = test: AlamarBlue viability assay, HeLa cells; assay type: cell-based, human; conditions: for effectiveness at reducing viability (Alamar Blue), rank among T-8, T-13, T-14: 32 h (FIG. 8A)
Experimental: (§3) The test compositions in Table 1 were tested first for their ability to induce cytotoxicity in dose response curves using an AlamarBlue assay using two cancer cell lines.
(§4) The method used for the viability assay follows. Cells were seeded in 96-well plates for measuring cell growth during treatment by the tested compound using the AlamarBlue fluorescence assay (Biosource International, Inc., Camarillo, Calif.). AlamarBlue (resazurin) is a soluble, non-toxic dye used to monitor the functional electron transport chain of a viable cell by reduction of the dye from its oxidized, non-fluorescent (blue) state to the reduced, fluorescent (pink) state (resorufin). AlamarBlue was added six hours prior to the desired time point in an amount equal to 10% (v/v) of the culture volume, and the plates were returned to the incubator. At the end of the six hour incubation, the amount of AlamarBlue reduction was measured using a fluorometric plate reader ([…]). The plate reader was blanked by reading the fluorescence of cell free medium supplemented with AlamarBlue (States et al., Toxicol. Appl. Pharmacol., Vol. 180, pages 83-91 (2002)). Data are reported as a percentage of the untreated control. Three independent experiments were analyzed and results are shown as average±standard deviation.

A375 cells [5] = test: AlamarBlue viability assay, A375 cells; assay type: cell-based, human; conditions: 32 h (FIG. 8B)
Experimental: as §3, §4

SK-MEL-28 cells [6] = test: Clonogenic viability assay, SK-MEL-28 cells; assay type: cell-based, human; conditions: SK-MEL-28 cells (paclitaxel resistant); colonies counted after 10 days (FIG. 6B)
Experimental: as §2

HeLa cells [7] = test: Mitotic index and mitotic catastrophe index determination (mitotic spread assay), HeLa cells; assay type: cell-based, human; conditions: for percent of nuclei present as clean mitotic spreads (mitotic index) / percentage of nuclei presenting as mitotic catastrophe: 60 μM T-8 or 10 μM T-3, 24 h, vs DMSO control, p<0.05 (FIG. 4)
Experimental: (§5) Cells were harvested for mitotic index analysis by trypsinization. Media, wash, and trypsinized cells were collected together and centrifuged to pellet all the cells. Cells were resuspended in 150 mL serum free media and 2.5 mL 0.4% KCl was added. The suspension was incubated for 10 minutes at 37° C. Methanol:acetic acid fixative solution (3:1, v/v) was then added to 2% (v/v) and cells were collected by centrifugation. Cells were resuspended in 2.5 mL fixative solution and fixed at room temperature for 20 minutes. Samples were centrifuged; pellets were resuspended in 0.5 mL fixative and chilled on ice for one hour. Aliquots of the suspensions were dropped onto slides (two slides per sample), air dried, and stained with Wright Giemsa solution (States et al., Toxicol. Appl. Pharmacol., Vol. 180, pages 83-91 (2002); Taylor et al., J. Pharmacol. Exp. Ther., Vol. 318, pages 142-151 (2006)). Slides were examined under a microscope and at least 200 cells were counted on each slide for determination of mitotic index and mitotic catastrophe index. Only cells with distinct interphase nuclei appearance (panel Q from FIG. 2), metaphase spread appearance (panel S from FIG. 2), or mitotic catastrophe appearance (panel T from FIG. 2) were counted. Mitotic index and mitotic catastrophe index were determined using the following formula: Mitotic index=(cells with mitotic spread appearance as exemplified in panel S of FIG. 2)/(total number of counted cells) Mitotic catastrophe index=(cells with mitotic catastrophe appearance as exemplified in panel T of FIG. 2)/(total number of counted cells)
Three independent experiments were analyzed. DAPI stain in mounting media (Molecular Probes) added directly to the slides was used to identify DNA in interphase nuclei, mitotic spreads, mitotic catastrophe, and nuclear fragmentation by fluorescence microscopy.
Test compositions T-1 to T-9 in Table 1 were tested for their ability to induce mitotic arrest using a mitotic spread assay because it can also be used to score for mitotic catastrophe (Taylor et al., J. Pharmacol. Exp. Ther., Vol. 318, Pages 142-151 (2006); Taylor et al., Toxicol. Appl. Pharmacol., Vol. 230, Pages 235-246 (2008)). […] In these tests, a single concentration of each test composition was tested based on cytotoxicity results of FIG. 1 and on results of observational studies to determine the dose and time course of morphological changes induced (data not shown). The concentrations chosen were the minimum concentrations required to induce <10% survival and morphological changes at 16-24 hours.

A375 cells [8] = test: Mitotic index and mitotic catastrophe index determination (mitotic spread assay), A375 cells; assay type: cell-based, human; conditions: selected concentrations (1-10 μM), eighteen hours, among T-1 to T-9 (FIG. 3)
Experimental: as §5, with “Aliquots of the suspensions were dropped onto slides (two slides per sample), air dried, and stained with Wright Giemsa solution (States et al., Toxicol. Appl. Pharmacol., Vol. 180, pages 83-91 (2002); Taylor et al., J. Pharmacol. Exp. Ther., Vol. 318, pages 142-151 (2006)).” left out
Three independent experiments were analyzed. […]

tGM24 cells [9] = test: Visual assessment of cytotoxicity, tGM24 cells; assay type: cell-based, human
Excerpt: as §1

SK-MEL-28 cells [10] = test: AlamarBlue viability assay, SK-MEL-28 cells; assay type: cell-based, human; conditions: 32 h (FIG. 10)
Experimental: as §4

GM0637 cells [11] = test: Visual assessment of cytotoxicity, GM0637 cells; assay type: cell-based; conditions: GM0637 (SV40-transformed human skin fibroblasts); 49 h (FIG. 9)
Excerpt: as §1

tGM24 cells [12] = test: AlamarBlue viability assay, tGM24 cells; assay type: cell-based, human; conditions: 32 h (FIG. 10)
Experimental: as §4

GM0637 cells [13] = test: AlamarBlue viability assay, GM0637 cells; assay type: cell-based, human; conditions: 32 h (FIG. 10)
Experimental: as §4

[14] = tGM24 normal diploid cells, 49 h (FIG. 9)

Structure (SMILES)	rounded up cells in mitosis (visual assessment) (SK-MEL-28 cells [1])	colony formation (clonogenic cytotoxicity) (HeLa cells [2])	rounded up cells in mitosis (visual assessment) (HeLa cells [3])	effectiveness at reducing viability (Alamar Blue), rank among T-8, T-13, T-14 (HeLa cells [4])	effectiveness at reducing viability (Alamar Blue), rank among T-8, T-13, T-14 (A375 cells [5])	colony formation (clonogenic cytotoxicity) (SK-MEL-28 cells [6])	other results
COc1cccc(NC2=NC3(CCCCC3)N=C(N)N2)c1 [T-11]	less effect	decreased colony formation	less effect				relative effectiveness in decreasing colony formation (HeLa cells [2]; Hela cells, among T-3, T-8, T-10, T-11 (FIG. 6A)): least effective
CCc1ccc(OCCOCC(O)CNC2CCCC2)cc1.Cl (racemic) [T-13]				followed by T-13	followed by T-13		
CC(C)NCC(O)COCCOc1ccc(Cl)cc1.Cl (racemic) [T-14]				least efficacy	least efficacy		
CCCCOc1ccc(NC2=NC3(CCCC3)N=C(N)N2)cc1 [T-10]	at slightly higher concentrations	decreased colony formation	at slightly higher concentrations			decreased colony formation	
COc1ccc(NC2=NC3(CCCC3)N=C(N)N2)cc1 [T-12]	less effect		less effect				
CCCCOc1ccc(NC2=NC3(CCCCC3)N=C(N)N2)cc1 [T-3]	accumulate	decreased colony formation	accumulate			decreased colony formation	percent of nuclei present as clean mitotic spreads (mitotic index) (HeLa cells [7]): increased; percentage of nuclei presenting as mitotic catastrophe (HeLa cells [7]): higher percentage; mitotic index (HeLa cells [7]; selected concentrations (1-10 μM), twice the concentration used for A375, eighteen hours, among T-1 to T-9 (FIG. 3)): highest mitotic index; mitotic index (A375 cells [8]): highest mitotic index
Cl.OC(CNC1CCCC1)COCCOc1ccc(Br)cc1 (racemic) [T-8]		decreased colony formation		most effective	most effective	decreased colony formation	percent of nuclei present as clean mitotic spreads (mitotic index) (HeLa cells [7]): decreased; percentage of nuclei presenting as mitotic catastrophe (HeLa cells [7]): higher percentage; cytotoxicity (Alamar Blue), sensitivity compared across cell lines (HeLa cells [4]; 32 h (FIG. 10)): most effective; selectivity for carcinoma cells and transformed cells compared to normal diploid cells (tGM24 cells [9]; SK-MEL-28, HeLa, GM0637 vs tGM24, visual assessment (FIG. 9)): selectivity of T-8 for carcinoma cells and transformed cells; accumulation of mitotic cells and apoptotic cells (visual assessment) (tGM24 cells [9]; tGM24 (telomerase immortalized human diploid skin fibroblasts), 49 h (FIG. 9)): not in tGM24; increase in cell number (visual assessment) (tGM24 cells [9]; tGM24, 49 h (FIG. 9)): less apparent; cell death of normal diploid cells (visual assessment) (tGM24 cells [9]; [14]): not observed; growth of normal diploid cells (visual assessment) (tGM24 cells [9]; [14]): appeared to be inhibited; cytotoxicity (Alamar Blue), sensitivity compared across cell lines (SK-MEL-28 cells [10]): moderate sensitivity; accumulation of mitotic cells and apoptotic cells (visual assessment) (SK-MEL-28 cells [1]; SK-MEL-28 (paclitaxel resistant human melanoma), 49 h (FIG. 9)): accumulated; accumulation of mitotic cells and apoptotic cells (visual assessment) (GM0637 cells [11]): accumulated; cytotoxicity (Alamar Blue), sensitivity compared across cell lines (tGM24 cells [12]): relatively resistant; accumulation of mitotic cells and apoptotic cells (visual assessment) (HeLa cells [3]; HeLa (paclitaxel sensitive human cervical carcinoma), 49 h (FIG. 9)): accumulated; cytotoxicity (Alamar Blue), sensitivity compared across cell lines (GM0637 cells [13]): moderate sensitivity
